Source: patent US6767569B1, “Surface decontamination of cooked sausage and processed meat and poultry products” (priority 1999, dated 2004)

How the values were obtained:
Assay type in all cases: cell-based
Salmonella spp. [1] = conditions: 35 °C, 24 hrs
Method: (§1) Each strain was subcultured on tryptic soy agar (TSA, DIFCO, Detroit, Mich.) slants and stored at 4° C. Strains were individually transferred into 100 mL of sterile 2× BHI (DIFCO, Detroit, Mich.) and incubated at 35° C. for 24 hr. to reach ca. 10^9 colony forming units/mL (CFU/mL). Then, 25 mL of each strain of E. coli was transferred into a sterile bottle (mixture X), and 25 mL of each strain of each strain of Salmonella spp. was transferred into a sterile bottle (mixture Y). Mixtures X and Y were maintained separately throughout the test.
(§2) Serial dilutions were made using Butterfields' Phosphate Buffer (BPB, Sigma, St. Louis, Mo.) in 1 mL aliquots prior to inoculation. BPB was prepared as a stock solution by adding 34 g Of KH2PO4 to 500 mL of distilled water. The pH was adjusted to 7.2, and the solution was brought to a volume of 1 L. The BPB stock was autoclaved for 20 min. at 121° C. and 15 lbs. of pressure. […] For glacial acetic acid (U.S.P.-F.C.C., J. T. Baker, Phillipsburg, N.J.), starting concentrations and serial dilutions were 50%, 25%, 12.5%, 6.25%, 3.12%, 1.56%, 0.78%, 0.39%, and a control (no treatment, buffer and culture). […] For peracetic acid 35.0% (STERIS 20™, STERIS Corporation, Mentor, Ohio), starting concentrations and serial dilutions were 17.5%, 8.75%, 4.38%, 2.19%, 1.09%, 0.55%, 0.30%, 0.14%, 0.07%, 0.03%, and a control. For liquid smoke (Hickory Specialties, Brentwood, Tenn.) starting concentrations and serial dilutions were 50%, 25%, 12.5%, 6.25%, 3.12%, 1.56%, 0.78%, 0.39%, and a control. Dilutions were prepared with deionized water.
(§3) The test tubes were incubated at 35° C. for 24 hrs. and turbidity was evaluated using McFarland equivalence standards, to study the bacteriostatic properties of the diluted solutions. In addition, each dilution was plated to evaluate the bactericidal properties of, the diluted solutions. Using a 1 μL sterile loop, each concentration and control for either microorganism mixture was streaked on plate count agar (PCA, DIFCO, Detroit, Mich.). A selective agar was also used for each mixture, eosine methylene blue agar (EMB, DIFCO, Detroit, Mich.) for E. coli and xylose lysine decarboxylase agar (XLD, DIFCO, Detroit,Mich.) for Salmonella spp. All plates were incubated for 24 hrs. at 35° C. and were inspected for growth or no growth.

E. coli [2] = test system: E. coli
Method: as §1, §2, §3

Salmonella spp. [3] = conditions: pork skin; 5 seconds spray; 2% lactic acid, 2% acetic acid, 0.1% peracetic acid; after 48 hours
Method: (§4) Samples of pork skin were inoculated separately with either 5 strains of E. coli or 5 strains of Salmonella spp. (mixtures X and Y, see Example 4). Five different treatments were evaluated for effectiveness in reducing bacteria on pork skin. […] EMB agar was used for E. coli and XLD for Salmonella, and a nutrient agar was also used for E. coli and Salmonella for total count.
(§5) The five strains of generic E. coli and five strains of Salmonella spp. were cultured and transferred individually into 100 mL of tryptic soy broth (TSB, DIFCO, Detroit, Mich.) with 1% dextrose (Sigma, St. Louis, Mo.) in duplicate. Dextrose was added to induce acid tolerance in the microbial cell. The cultures were incubated at 35° C. for 24 hrs. to obtain ca. 10^9 colony forming units (CFU)/mL. The cells were harvested by the centrifuging each culture at 10,000 Xg force for 10 min. at 4° C., (Beckman J2-HS centrifuge, Beckman Instruments, Inc., Palo Alto, Calif.). After centrifugation, the supernatant was poured off, and cells remained in pellet form. Each pellet was individually re-suspended with 50 mL of 0.1% peptonewater (DIFCO, Detroit, Mich.). All five strains of E. coli or Salmonella spp. inoculum were transferred to separate HDPE plastic spray bottles (Sprayco™, Detroit, Mich.) to be used in the mist inoculation of pork skin samples.
(§6) For E. coli, PCA and EMB media were used, and for Salmonella, PCA and XLD media were used. Bacto Plate Count Agar (PCA) was used in this study as a standard methods medium for the enumeration of bacteria before and after treatments. Spiral (sl), or spread (sd) plate technique were used for viable cell counts. Duplicate plates were performed for each treatment.
(§7) Fresh pork skins taken from the loin region were cut to rectangles of 19.35 cm^2. A hole was bored into the top of each sample so that each sample could be suspended from an individual hook in the spray cabinet. Samples were laid out onto trays wrapped in butcher paper. Each tray was individually spray inoculated with E. coli or Salmonella spp. in a Plexiglas spray chamber to ca. 8.4 mL of inoculum. After the inoculation, each tray was placed under a laminar flow hood for 1 hr. to allow the surface to dry and for the attachment of the bacteria to the pork skin.
(§8) The peracetic acid (PAA) used in this study was a 35.0% PAA buffered, liquid solution prepared from a STERIS 20™ two compartment cup (a dry powder containing anticorrosive additives, buffers, sequestrants, and surfactants). The peracetic acid determined before each use of the treatment using a calibration curve.
(§9) Five inoculated samples were individually placed on stainless steel hooks in. a spray cabinet at ambient temperature.
(§10) The samples were exposed to a continuous spray of the selected treatment for 5 seconds at a spray pressure of 16-18 psi.
(§11) The treated samples were placed into individual stomacher bags containing 30 mL of 0.1% peptone water (DIFCO, Detroit, Mich.) and stomached for 2 min. Serial dilutions of 0, 10^−2, and 10^−4 were spiral plated (WASP spiral plater, Bioscience International, Rockville, Md.) on PCA (DIFCO, Detroit, Mich.) and EMB (DIFCO, Detroit, Mich.) for E. coli and on plate count agar (PCA, DIFCO, Detroit, Mich.) and xylose lysine decarboxylase agar (XLD, DIFCO, Detroit, Mich.) for Salmonella spp. Samples were also spread plated on PCA and EMB agar for E. coli or PCA and XLD agar for Salmonella spp, using […] for a total of 1 mL on 4 plates. This was to ensure a countable plate. Plates were inverted and incubated at 35° C. for 24 hrs. (48 hrs. for Salmonella spp.).

E. coli [4] = conditions: pork skin; 5 seconds spray; 2% lactic acid, 2% acetic acid, 0.1% peracetic acid; after 24 hours
Method: as §4, §5, §6, §7, §8, §9, §10, §11

CC(=O)O [Acetic Acid, acetic acid, reference compound]
MIC (%) (Salmonella spp. [1]): 0.78% | MIC (%) (E. coli [2]): 3.12% | Total Count (Salmonella) on PCA (Salmonella spp. [3]): 5.37 Log CFU/cm^2 | Total Count (Salmonella) on XLD (Salmonella spp. [3]): 4.27 Log CFU/cm^2 | Total Count (E. coli) on EMB (E. coli [4]): 4.55 Log CFU/cm^2 | Total Count (E. coli) on PCA (E. coli [4]): 4.68 Log CFU/cm^2
